Test results reported in patent US20090270397A1, “Methods and compositions for the treatment of cancers, such as melanomas and gliomas” (priority 2008, published 2009).
One block for each compound: values may come before it.

What was measured:
melanoma cells = assay: Antifolate agents as enhancers of TMZ, MTT assay (FIG. 7); assay type: cell-based; settings: 0.01 uM antifolate in combination with TMZ, 72 h
Experimental: FIG. 7 is a graph presenting the results of tests of several antifolate agents as enhancers of anti-neoplastic activity. […] Cells were treated with the indicated dose of TMZ alone, or in combination with 0.01 uM PYR, MTX (Methotrexate), TMP (Trimethoprim), TMTX (Trimetrexate), PTX (Piritrexim), and CYC (Cycloguanil). Cell growth was assessed by MTT assay after 72 h drug treatment.
Among the six “hits” identified from library screening, both PYR and triamterene are antifolate compounds.

SK-MEL 19 cells = assay: MTT cell proliferation/viability assay in SK-MEL 19 melanoma cells; assay type: cell-based, human; settings: for sensitization to TMZ (effect on TMZ response curve): SK-MEL 19 cells
Experimental: Dose-response diagrams of SKM-19 cells exposed to TMZ (FIG. 2A) or pyrimethamine (PYR) (FIG. 2B) alone were prepared for comparison. Melanoma cells were exposed to the indicated concentration of TMZ or PYR for 72 hours. Cell growth inhibition was evaluated by the MTT assay. Survival relative to the control is presented as mean±standard error of the mean of at least three experiments (with viability of control cells set at 100%). In FIG. 2C, PYR enhances TMZ efficacy in various cancer cell lines. Cells were treated with indicated concentrations of TMZ or PYR at the same time and left for 72 hours. Cell viability was determined by MTT assay. SK-MeI 19, SK-Mel 100, SK-Mel 173, and SK-Mel 192 are melanoma cell lines; LN-18 and T98G are glioma cell lines. * P<0.05, **P<0.01.
(§1) FIGS. 8A-8C. PYR antifolate activity enhances TMZ chemotherapeutic efficacy. A, the growth inhibitory effects of PYR, DDEP, DDMP, CYC, and the classical antifolate MTX on TMZ response curve were examined by MTT assay in melanoma and glioma cells. […] The cytotoxic effect of the combination of TMZ (25 μg/ml) and PYR (0.5 μM) can be rescued by LV (10 μM) as examined by MTT assay (B) and the level of cleaved PARP (C) in SK-MEL 19 cells. 1. Control; 2. TMZ; 3. PYR; 4. TMZ+PYR; and 5. TMZ+PYR+LV. ** P<0.01, compared to 2, 3, or 5.
(§2) The cell growth and cytotoxicity after treatment with TMZ and/or PYR on melanoma cells and glioma cells was performed using Colorimetric MTT assay for cell survival and proliferation assay (MTT Assay Kit, Promega). Tumor cells were seeded at 3000 cells per well (100 μl volume) in 96-well plates and allowed to attach overnight. After TMZ and PYR treatment for 72 hours, the cells were stained with MTT, which is then converted to dark blue formazan crystals by mitochondrial dehydrogenases in viable cells. The plates were read with a microplate reader by measuring the absorbance of converted MTT at 490 nm. Results were expressed as the OD490 relative to that of untreated cells. Cell viability was also determined by the trypan-blue dye exclusion method.

[1] = test system: cleaved PARP in SK-MEL 19 cells; assay: Leucovorin rescue, cleaved PARP level; assay type: cell-based, human; settings: 10 μM LV added to cells treated with TMZ/PYR
Experimental: as §1
Leucovorin (N-5-formyltetrahydrofolate, LV, folinic acid), a reduced form of folate, is used widely to specifically reverse the toxic effects of antifolates (27). To further confirm that PYR-enhanced TMZ chemotherapeutic efficacy in melanoma cells was due to the antifolate activity of PYR, 10 μM LV was added to cells treated with TMZ/PYR. LV rescued both the inhibition of cell growth (FIG. 8B) and the increase in apoptotic death induced by TMZ/PYR as measured by the proteolytic cleavage of PARP by caspase-3 (FIG. 8C).

[2] = Further antifolate agents as enhancers of temozolomide activity (FIGS. 9 and 10); assay type: cell-based; settings: FIG. 9
Experimental: FIG. 9 is a further graph presenting the results of tests of several antifolate agents as enhancers of anti-neoplastic activity. In the figure, N1 is pterin-6-carboxylic acid, N2 is aminopterin, N3 is amiloride and N4 is N,N-hexamethylene amiloride.
FIG. 10 presents further data from the testing of additional agents for use in accordance with the invention. Thus, TMZ was administered in combination with compounds S1-S14. The compounds tested are as follows: S1-dipyridamole. S2-methotrexate, S3-minoxidil, S4-prazosin hydrochloride, S5-pyrimethamine, S6-triamterene, S7-trimethoprim, S8-aminopterin, S9-pipemidic acid, S10-piromidic acid, S11-famciclovir, S12-alfuzocin, S13-xanthopterin, and S14-leucopterin.
In FIGS. 9 and 10, additional antifolate agents were tested, and the results indicating their activity as enhancers of TMZ activity are set forth.

[3] = cited from earlier work
[4] = test system: human melanoma cell line SK-MEL 19; assay: Screening of Spectrum Collection library for enhancers of TMZ-induced growth inhibition (MTT assay); assay type: cell-based; settings: SK-MEL19, 1 μM compound in presence of 50 μg/ml TMZ, 96-well plates, read-out: greater growth inhibition relative to TMZ alone
Experimental: FIGS. 1A and 1B. […] Screening was performed with SK-Mel-19 cells in 96-well plates following by MTT assay. Cells in one set of plate were treated with each library compound alone at 1 μM while cells in the parallel plate were treated with a combination of 1 μM library compound and 50 μg/ml TMZ. Positive candidates were later reconfirmed in triplicate.
A commercial library of 2000 drugs and natural products was screened to identify novel compounds that enhance TMZ-induced growth inhibition in the human melanoma cell line SK-MEL 19. Screening was performed in 96-well plates at final compound concentration of 1 μM, in the absence or presence of 50 μg/ml TMZ, followed by MTT assay (FIG. 1A).

[5] = cited from earlier work; remark: listed apart in the source
SK-MEL 19 = assay: Cell death by trypan blue dye exclusion; assay type: cell-based, human; settings: clinically-relevant concentration of TMZ, PYR 0.5 μM, 72 hours
Experimental: Melanoma cells were exposed to the indicated concentration of TMZ, PYR or both for 72 hours. In FIG. 5A, cell death was evaluated by trypan blue dye exclusion. * P<0.05, compared to 2 or 3. In FIG. 5B, cleaved Caspase-3 was determined by Western blot analysis. 1. Control; 2. TMZ (25 μg/ml); 3. PYR (0.5 μM), and 4. TMZ and PYR combination.
as §2
To investigate whether PYR can enhance the induction of cell death by TMZ, Trypan blue staining was employed to determine the ratio of dead cells versus total cells in SK-MEL 19. […]

Structure (SMILES): CC1(C)N=C(N)N=C(N)N1c1ccc(Cl)cc1 [CYC, cycloguanil]
enhancement of TMZ efficacy (melanoma cells): enhance TMZ efficacy

Structure (SMILES): CCc1nc(N)nc(N)c1-c1ccc(Cl)c(Cl)c1 [DDEP, etoprine]
sensitization to TMZ (effect on TMZ response curve) (SK-MEL 19 cells; 0.005 μM antifolate, MTT): significant sensitization to TMZ

Structure (SMILES): Cc1nc(N)nc(N)c1-c1ccc(Cl)c(Cl)c1 [DDMP, metoprine]
sensitization to TMZ (effect on TMZ response curve) (SK-MEL 19 cells; 0.005 μM antifolate, MTT): significant sensitization to TMZ

Structure (SMILES): Nc1nc2c(c(=O)[nH]1)N(C=O)C(CNc1ccc(C(=O)N[C@@H](CCC(=O)O)C(=O)O)cc1)CN2 (some centres unmarked) [LV, N-5-formyltetrahydrofolate]
rescue of increase in apoptotic death induced by TMZ/PYR (proteolytic cleavage of PARP) [1]: rescued
rescue of inhibition of cell growth induced by TMZ/PYR (SK-MEL 19 cells; 10 μM LV added to cells treated with TMZ (25 μg/ml)/PYR (0.5 μM), MTT): rescued

Structure (SMILES): CN(Cc1cnc2nc(N)nc(N)c2n1)c1ccc(C(=O)N[C@@H](CCC(=O)O)C(=O)O)cc1 [MTX, methotrexate]
enhancement of TMZ efficacy (melanoma cells): enhance TMZ efficacy
sensitization to TMZ (effect on TMZ response curve) (SK-MEL 19 cells; 0.001 μM antifolate, MTT): significant sensitization to TMZ

Structure (SMILES): Nc1nc2ncc(C(=O)O)nc2c(=O)[nH]1 [N1, pterin-6-carboxylic acid]
enhancement of the antineoplastic activity of temozolomide [2]: favorable enhancement

Structure (SMILES): N=C(N)NC(=O)c1nc(Cl)c(N)nc1N [N3, amiloride]
enhancement of the antineoplastic activity of temozolomide [2]: favorable enhancement

Structure (SMILES): NC(N)=NC(=O)c1nc(Cl)c(N2CCCCCC2)nc1N [N4, N,N-hexamethylene amiloride]
enhancement of the antineoplastic activity of temozolomide [2]: favorable enhancement

Structure (SMILES): COc1ccc(OC)c(Cc2cnc3nc(N)nc(N)c3c2C)c1 [PTX, Piritrexim]
enhancement of TMZ efficacy (melanoma cells): enhance TMZ efficacy

Structure (SMILES): CCc1nc(N)nc(N)c1-c1ccc(Cl)cc1 [PYR, pyrimethamine]
blood-brain barrier crossing ([3]; in vivo): easily crosses the blood-brain barrier
oral bioavailability ([3]; oral administration): bioavailable following oral administration
inhibition at 1 µM [4]: ≥ 50%

Structure (SMILES): COc1cc(Cc2cnc(N)nc2N)cc(OC)c1OC [TMP, Trimethoprim]
enhancement of TMZ efficacy (melanoma cells): enhance TMZ efficacy

Structure (SMILES): COc1cc(NCc2ccc3nc(N)nc(N)c3c2C)cc(OC)c1OC [TMTX, Trimetrexate]
enhancement of TMZ efficacy (melanoma cells): enhance TMZ efficacy

IC50 (SK-MEL 19 cells; Homo sapiens, SK-MEL19, TMZ alone, SK-MEL-19 cells): ~60 µg/mL
Structure (SMILES): Cn1nnc2c(C(N)=O)ncn2c1=O [TMZ, temozolomide]
clinically achievable serum levels during chemotherapy [5]: 100 µM
cell death (ratio of dead cells versus total cells) (SK-MEL 19): approximately 15%

Structure (SMILES): S=C=NCc1ccccc1 [benzyl isothiocyanate]
inhibition at 1 µM [4]: ≥ 50%

Structure (SMILES): [H]/N=C(\N/C(=N/[H])NCCCCCCNC(=N)NC(=N)Nc1ccc(Cl)cc1)Nc1ccc(Cl)cc1 [chlorhexidine]
inhibition at 1 µM [4]: ≥ 50%

Structure (SMILES): Oc1ccc(Cl)c2cccnc12 [cloxyquin]
inhibition at 1 µM [4]: ≥ 50%

Structure (SMILES): Nc1nc(N)c2nc(-c3ccccc3)c(N)nc2n1 [triamterene]
inhibition at 1 µM [4]: ≥ 50%
